Data published in PMC9841525, “Chemical Blockage of the Mitochondrial Rhomboid Protease PARL by Novel Ketoamide Inhibitors Reveals Its Role in PINK1/Parkin-Dependent Mitophagy” (Journal of Medicinal Chemistry, 2022).
pIC50: −log10 of the molar value. *1 amine or outer side, *2 acyl side, *3 side chain or, on linkers, in order; H or OH if unused. Where a SMILES comes first, the peptide text is derived from it. [ ]: non-standard residue; d: D form. The star is where a group is joined. NH(4-phenylbutyl) = c1ccc(CCCCN*)cc1; X1 = C[C@H](N[*:1])C(=O)C(=O)[*:2]

Key:
PARL [1] = target: T1, PARL (Homo sapiens, UniProt Q9H300); experiment: PARL inhibition assay in cells: cleavage of overexpressed PGAM5-Myc by tetracycline-induced PARL-FLAG, immunoblot; format: cell-based; design: expressed in transfected cells; host or cells: Flp-In HEK293 T-REx PARL knockout cells
T1 sequence (Q9H300 53-379): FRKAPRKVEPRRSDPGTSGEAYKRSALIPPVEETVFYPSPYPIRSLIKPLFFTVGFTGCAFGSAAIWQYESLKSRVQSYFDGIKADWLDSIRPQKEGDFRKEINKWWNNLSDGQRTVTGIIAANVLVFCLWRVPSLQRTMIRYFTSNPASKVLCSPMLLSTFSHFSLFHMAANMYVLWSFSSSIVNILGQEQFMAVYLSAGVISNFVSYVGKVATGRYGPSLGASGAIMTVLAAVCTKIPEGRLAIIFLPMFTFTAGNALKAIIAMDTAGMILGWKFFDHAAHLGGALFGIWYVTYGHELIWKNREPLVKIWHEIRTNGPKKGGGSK
Method: PARL inhibition assays in cells were carried out in Flp-In HEK293 T-REx PARL knockout cells stably transfected with tetracycline inducible PARL-FLAG grown in DMEM (Gibco) supplemented with 10% (v/v) tetracycline-free fetal bovine serum (Clontech). For the inhibition assay, 0.7 × 10^6 cells were seeded per well of a 6-well plate, and the next day transfected with 5 μg of human PGAM5-Myc in pcDNA and 15 μg of branched polyethylenimine (Polysciences) per well. Four hours after transfection, the PARL expression was induced by adding tetracycline to 1 μg/mL. Eight hours after transfection, the inhibitors were added to each well in different concentrations in serum-free DMEM with 1% DMSO.
For immunoblot analysis of the effects of PARL inhibitors on PGAM5 cleavage, after overnight incubation with inhibitors, cells from each well were harvested in 1× SDS sample buffer containing 20 mM MgCl2 and Pierce universal nuclease (250 U/mL, Thermo Scientific) and heated to 65 °C for 10 min. Loading volumes for SDS-PAGE were adjusted by measuring total protein concentration in the lysates with Pierce 660 nm Protein Assay Reagent and Ionic Detergent Compatibility Reagent for Pierce 660 nm Protein Assay Reagent (Thermo Scientific). Samples were resolved by SDS-PAGE using a 12% polyacrylamide gel (Biorad) and electrotransferred onto an Immobilon PVDF membrane (Merck Millipore). Blots were blocked using casein blocker (Thermo Scientific) and hPGAM5 was labeled by rabbit anti-Myc antibody (Cell Signaling Technology, cat. #2278, dilution 1:1000) at 4 °C overnight. Blots were washed three times with TBS-T and incubated with IRDye 800 CW donkey anti-rabbit antibody (Invitrogen, cat. #SA5-10044, dilution 1:10,000) at room temperature for 2 h. Membranes were then again washed three times with TBS-T and one time with TBS. Fluorescence emission at […] of dried membranes was scanned on Odyssey CLx (LI-COR). Cleavage efficiency and inhibition were analyzed as described[23] using Image Studio Lite (LI-COR), Excel (Microsoft) and GraphPad Prism 9 (GraphPad Software, Inc.).

PARL [2] = target: T1, PARL; experiment: PARL inhibition in vitro, PARL in liposomes with substrate compound 4; format: biochemical; design: hexahistidine tag (C); made in house; host or cells: continuous-exchange cell-free expression in bacterial lysates with T7 polymerase (CUBE biotech), into liposomes
Method: Liposome preparation and cell-free protein expression of PARL were carried out essentially as described previously.[27] Liposomes resembling the lipid composition of the IMM were prepared by mixing 40% DOPC (1,2-dioleoyl-sn-glycero-3-phosphocholine), 33.8% DOPE (1,2-dioleoyl-sn-glycero-3-phosphoethanolamine), 18% CL(18:1)4 (1′,3′-bis[1,2-dioleyl-sn-glycero-3-phospho]-glycerol), 3% DOPS (1,2-dioleoyl-sn-glycero-3-phospho-L-serine), 5% soy-PI (L-α-phosphatidylinositol), and 0.2% rhodamine-PE (1,2-dioleoyl-sn-glycero-3-phosphoethanolamine-N-(lissamine rhodamine B sulfonyl)) in chloroform, followed by the evaporation of chloroform by a stream of nitrogen gas and drying in a vacuum chamber (Binder) for 1 h. Dried lipids were dissolved in buffer (5 mM Tris/HCl, pH 8.5, 10 mM KOAc) and extruded 21 times through a mini extruder (Avanti Polar Lipids) using a polycarbonate membrane with a pore size of […]. […] The PARL-containing liposomes were purified by a step-wise sucrose step-gradient centrifugation (0, 15, 30, and 40% sucrose in 5 mM HEPES pH 7.5 with 25 mM NaCl) for 2 h at 200,000 × g. Soluble proteoliposomes were harvested at the 0%/15% sucrose interface after the centrifugation. Concentration of PARL was determined by absorption at 280 nm.
PARL inhibition in vitro was measured in 5 mM Tris, 5 mM Mg(OAc)2, 25 μM Zn(OAc)2, 0.1 μg/μL BSA, 10% DMSO, pH 8.0 using PARL in liposomes at 0.07 mg/mL and compound 4 at 100 μM final concentration. Inhibitor concentrations were determined by quantitative amino acid analysis. Inhibitors in DMSO were dissolved at the respective concentrations into the reaction buffer by vigorous mixing at 1000 rpm, 37 °C for 40 min and then pre-incubated with PARL in liposomes at 37° for 1 h. The cleavage reaction was started by adding compound 4 and carried out at 37 °C in 96-well black HTS plates (Greiner Bio-One). Fluorescence was read in a plate reader (Tecan Infinite M1000) with excitation and emission wavelengths set to 355 and 450 nm, respectively. Data were evaluated using Excel (Microsoft) and GraphPad Prism 9 (GraphPad Software, Inc.). The data shown are representative of at least three independent experiments.

pIC50 (PARL [1]; Flp-In HEK293 T-REx PARL KO cells with inducible PARL-FLAG, PGAM5-Myc, mean ± SEM of four or three experiments, read-out: Apparent IC50, PGAM5 cleavage by overexpressed PARL): 6.39 | Fold better than compound 6 in cells (PARL [1]; ratio of apparent IC50 values, compound 5 vs compound 6): about 8 fold | Fold better than compound 6 in vitro (PARL [2]; ratio of IC50 values, compound 5 vs compound 6): about 3 fold | pIC50 (PARL [2]; recombinant mature PARL in liposomes, 100 μM substrate compound 4, mean ± SEM of three or four measurements): 7.55
SMILES: CC(=O)N[C@@H](C)C(=O)N[C@H](C(=O)N[C@@H](Cc1ccccc1)C(=O)N[C@@H](CC(C)C)C(=O)N[C@@H](C)C(=O)C(=O)NCCCCc1ccccc1)C(C)C [compound 5] (Ac-AVFL[X1]-{NH(4-phenylbutyl)})
